Results: US20210393547A1, “USE OF EMODIN IN TREATING RETINAL ISCHEMIA OR A DISEASE, CONDITION, OR DISORDER ASSOCIATED WITH RETINAL ISCHEMIA” (priority 2020, published 2021)

Test system: RGC-5 cells
Experiment: cells
Type: cell-based
Conditions: Mus musculus, RGC5, read-out: Cell viability (% of control)
Experimental: RGC-5 cells have been reported to be not transformed rat RGCs, but rather are mouse retinal neuronal precursor cells. OGD was established by incubating RGC-5 cells in Dulbecco's modified Eagle medium (DMEM; Thermo Fisher Scientific Inc.) without glucose at 37° C. under ischemia simulation conditions, namely 1% O2 (measured using a Penguin Incubator; Astec Company, Kukuoka, Japan), 94% N2 and 5% CO2. Various experimental groups (Table 1) were investigated. […]
Mitochondrial nicotinamide adenine dinucleotide phosphate dependent oxidoreductases are able to reduce MTT to produce formazan and thus increased levels of dark purple formazan that are associated with greater cell viability. […] After shaking, the optical density (OD) of the dissolved formazan was measured using an ELISA plate reader (Synergy H1 Multi-Mode Reader BioTek Instruments) at 562 nm. Cell viability was calculated as the change in OD value compared to the untreated control (100%).
The cultured cells were used to identify the effective dose(s) of the tested agent emodin. The effect of emodin (0.25 and 0.5 μM) on the cultured cells was evaluated utilizing MTT cell viability assays and a cellular ischemia simulation model, namely OGD, for 1 day. […]

Cc1cc(O)c2c(c1)C(=O)c1cc(O)cc(O)c1C2=O [emodin, 6-methyl-1,3,8-trihydroxyanthraquinone]
viability at 0.25 µM: 43.8 ± 3.75%
viability at 0.5 µM: 47.5 ± 3.99%
